Reference: ChEMBL document CHEMBL3045019, “Antioxidant and antimicrobial studies of novel N-(substituted-2-chloroquinolin-3-yl)methylidene-4-hydroxy-2H-1,2-benzothiazine-3-carbohydrazides 1,1-dioxides” (2012)
In brackets after ≈: the same amount, converted by molar mass.

Experiments:
Assay type in all cases: functional
[1] = Antioxidant activity assessed as superoxide radical scavenging activity by NBT reduction assay relative to control; set-up: concentration or dose not given beside the values
Siminovitchia fortis = assay: Antibacterial activity against Bacillus fortis after 24 hr by agar dilution assay
[2] = system: Salmonella enterica subsp. enterica serovar Gallinarum; assay: Antibacterial activity against Salmonella enterica subsp. enterica serovar Gallinarum after 24 hr by agar dilution assay
Aspergillus flavus = assay: Antifungal activity against Aspergillus flavus after 3 to 5 days by agar dilution assay
Bacillus thuringiensis = assay: Antibacterial activity against Bacillus thuringiensis after 24 hr by agar dilution assay
Aspergillus niger = assay: Antifungal activity against Aspergillus niger after 3 to 5 days by agar dilution assay
Fusarium oxysporum = assay: Antifungal activity against Fusarium oxysporum after 3 to 5 days by agar dilution assay
Enterobacter cloacae = assay: Antibacterial activity against Enterobacter cloacae after 24 hr by agar dilution assay
Bacillus subtilis = assay: Antibacterial activity against Bacillus subtilis after 24 hr by agar dilution assay
Escherichia coli = assay: Antibacterial activity against Escherichia coli after 24 hr by agar dilution assay

Structure (SMILES)	Activity [1] [%]	MIC (Siminovitchia fortis) [µg/mL]	MIC [2] [µg/mL]	MIC (Aspergillus flavus) [µg/mL]	MIC (Bacillus thuringiensis) [µg/mL]	MIC (Aspergillus niger) [µg/mL]	MIC (Fusarium oxysporum) [µg/mL]	MIC (Enterobacter cloacae) [µg/mL]	MIC (Bacillus subtilis) [µg/mL]	MIC (Escherichia coli) [µg/mL]
COc1ccc2cc(/C=N/NC(=O)C3=C(O)c4ccccc4S(=O)(=O)N3)c(Cl)nc2c1	72.1	> 100	> 1000	> 200	> 100	> 200	> 200	> 1000	> 1000	> 1000
Cc1ccc2nc(Cl)c(/C=N/NC(=O)C3=C(O)c4ccccc4S(=O)(=O)N3C)cc2c1	51.2	> 1000	> 1000	> 1000	> 1000	> 1000	> 1000	> 1000	> 1000	> 1000
Cc1cccc2cc(/C=N/NC(=O)C3=C(O)c4ccccc4S(=O)(=O)N3)c(Cl)nc12	52.5	> 1000	> 1000	> 1000	> 1000	> 1000	> 1000	> 1000	> 1000	> 1000
Cc1ccc2cc(/C=N/NC(=O)C3=C(O)c4ccccc4S(=O)(=O)N3C)c(Cl)nc2c1	51.9	> 100	> 1000	> 1000	> 100	> 1000	> 1000	> 1000	> 100	> 1000
CCCOC(=O)c1cc(O)c(O)c(O)c1	91.3	–	–	–	–	–	–	–	–	–
Cc1ccc2nc(Cl)c(/C=N/NC(=O)C3=C(O)c4ccccc4S(=O)(=O)N3)cc2c1	51.8	> 100	> 1000	> 100	> 100	> 100	> 100	> 1000	> 100	> 1000
Cc1cccc2cc(/C=N/NC(=O)C3=C(O)c4ccccc4S(=O)(=O)N3C)c(Cl)nc12	61.3	> 1000	> 1000	> 1000	> 1000	> 1000	> 1000	> 1000	> 1000	> 1000
CC1(C)S[C@@H]2[C@H](NC(=O)[C@H](N)c3ccc(O)cc3)C(=O)N2[C@H]1C(=O)O [AMOXICILLIN]	–	2 (≈ 5.47 µM)	2 (≈ 5.47 µM)	2 (≈ 5.47 µM)	6 (≈ 16.4 µM)	2 (≈ 5.47 µM)	2 (≈ 5.47 µM)	2 (≈ 5.47 µM)	3 (≈ 8.21 µM)	2 (≈ 5.47 µM)
COc1ccc2cc(/C=N/NC(=O)C3=C(O)c4ccccc4S(=O)(=O)N3C)c(Cl)nc2c1	65.1	> 100	> 1000	> 1000	> 100	> 1000	> 1000	> 1000	> 100	> 1000
COc1ccc2nc(Cl)c(/C=N/NC(=O)C3=C(O)c4ccccc4S(=O)(=O)N3)cc2c1	69.7	> 100	> 1000	> 500	> 100	> 500	> 500	> 1000	> 100	> 1000
COc1ccc2nc(Cl)c(/C=N/NC(=O)C3=C(O)c4ccccc4S(=O)(=O)N3C)cc2c1	67.2	> 200	> 1000	> 100	> 200	> 100	> 100	> 1000	> 200	> 1000
CN[C@@H]1[C@H](O[C@H]2[C@H](O[C@H]3[C@H](O)[C@@H](O)[C@H](N=C(N)N)[C@@H](O)[C@@H]3N=C(N)N)O[C@@H](C)[C@]2(O)C=O)O[C@@H](CO)[C@H](O)[C@H]1O [STREPTOMYCIN]	–	0.9 (≈ 1.55 µM)	1 (≈ 1.72 µM)	0.7 (≈ 1.2 µM)	3 (≈ 5.16 µM)	1 (≈ 1.72 µM)	1 (≈ 1.72 µM)	1 (≈ 1.72 µM)	1 (≈ 1.72 µM)	0.7 (≈ 1.2 µM)
Cc1ccc2cc(/C=N/NC(=O)C3=C(O)c4ccccc4S(=O)(=O)N3)c(Cl)nc2c1	49.1	> 1000	> 1000	> 1000	> 1000	> 1000	> 1000	> 1000	> 1000	> 1000
